From ChEMBL document CHEMBL5634134, “Design, synthesis, and biological evaluation of novel 4,4'-bipyridine derivatives acting as CDK9-Cyclin T1 protein-protein interaction inhibitors against triple-negative breast cancer” (Eur J Med Chem, 2023)
Calls of active or inactive are those of the source. The calls are words filed in the database; no cut-off is given here.

How the values were obtained:
[1] = Cytotoxicity against human MCF-10A cells assessed as inhibition of cell growth incubated for 72 hrs by MTT assay; format: toxicity, cell-based
[2] = Cytotoxicity against HK-2 cells assessed as inhibition of cell growth incubated for 72 hrs by MTT assay; format: toxicity, cell-based; settings: human
[3] = Cytotoxicity against human MRC5 cells assessed as inhibition of cell growth incubated for 72 hrs by MTT assay; format: toxicity, cell-based
[4] = Tmax in Sprague-Dawley rat at 50 mg/kg, ip measured afer 24 hrs by LC-MS/MS analysis; format: ADME, organism-based; settings: in vivo
[5] = AUC (0 to t) in Sprague-Dawley rat at 50 mg/kg, ip measured afer 24 hrs by LC-MS/MS analysis; format: ADME, organism-based; settings: in vivo
[6] = AUC (0 to infinity) in Sprague-Dawley rat at 50 mg/kg, ip measured afer 24 hrs by LC-MS/MS analysis; format: ADME, organism-based; settings: in vivo
[7] = MRT (0 to t) in Sprague-Dawley rat at 50 mg/kg, ip measured afer 24 hrs by LC-MS/MS analysis; format: ADME, organism-based; settings: in vivo
MDA-MB-231 [8] = assay: Inhibition of RNA Polymerase II CTD phosphorylation at ser2 residue in human MDA-MB-231 cells at 1 uM incubated for 24 hrs by Western blotting analysis; format: cell-based
[9] = target: Cyclin-dependent kinase 2 (Homo sapiens) (UniProt P24941); assay: Binding affinity to CDK2 in human MDA-MB-231 cells asssesed as thermal stabilization at 1 uM incubated for 8 hrs under 45 to 65 degreeC by Western blot analysis; format: cell-based
[10] = target: Cyclin-dependent kinase 12 (Homo sapiens) (UniProt Q9NYV4); assay: Binding affinity to CDK12 in human MDA-MB-231 cells asssesed as thermal stabilization at 1 uM incubated for 8 hrs under 45 to 65 degreeC by Western blot analysis; format: cell-based
MDA-MB-231 [11] = assay: Inhibition of colony formation in human MDA-MB-231 cells assessed as reduction in colony number incubated for 10 days by crystal violet staining based analysis; format: functional, cell-based; settings: dose 12-1000 nM, time 10.0 day
MDA-MB-231 [12] = assay: Induction of apoptosis in human MDA-MB-231 cells assessed as viable cells at 111 nM incubated for 72 hrs by Annexin V-FITC/PI staining based flow cytometry analysis (reference value: 94.81 %); format: functional; settings: read-out: Activity
MDA-MB-231 [13] = assay: Induction of apoptosis in human MDA-MB-231 cells assessed as early apoptotic cells at 111 nM incubated for 72 hrs by Annexin V-FITC/PI staining based flow cytometry analysis (reference value: 0.66 %); format: functional
MDA-MB-231 [14] = assay: Induction of apoptosis in human MDA-MB-231 cells assessed as late apoptotic cells at 111 nM incubated for 72 hrs by Annexin V-FITC/PI staining based flow cytometry analysis (reference value: 4.04 %); format: functional
MDA-MB-231 [15] = assay: Induction of apoptosis in human MDA-MB-231 cells assessed as viable cells at 333 nM incubated for 72 hrs by Annexin V-FITC/PI staining based flow cytometry analysis (reference value: 94.81 %); format: functional; settings: read-out: Activity
MDA-MB-231 [16] = assay: Induction of apoptosis in human MDA-MB-231 cells assessed as late apoptotic cells at 333 nM incubated for 72 hrs by Annexin V-FITC/PI staining based flow cytometry analysis (reference value: 4.04 %); format: functional
MDA-MB-231 [17] = assay: Induction of apoptosis in human MDA-MB-231 cells assessed as viable cells at 1000 nM incubated for 72 hrs by Annexin V-FITC/PI staining based flow cytometry analysis (reference value: 94.81 %); format: functional; settings: read-out: Activity
MDA-MB-231 [18] = assay: Induction of apoptosis in human MDA-MB-231 cells assessed as necrotic cells at 1000 nM incubated for 72 hrs by Annexin V-FITC/PI staining based flow cytometry analysis (reference value: 0.49 %); format: functional
MDA-MB-231 [19] = assay: Inhibition of cell invasion in human MDA-MB-231 cells incubated for 24 hrs by crystal violet staining based transwell matrix penetration assay; format: functional; settings: dose 37-1000 nM
[20] = Toxicity in mouse assessed as death rate at 750 mg/kg, ip administered for 16 days relative to control; format: organism-based; settings: in vivo, time 16 day, read-out: Activity
4T1 [21] = assay: Antitumor activity against mouse 4T1 cells implanted in athymic BALB/c mouse assessed as tumor inhibition rate at 12.5 mg/kg, ip administered for 14 days relative to control; format: functional; settings: 4T1, 336 h, time 14 day
4T1 [22] = assay: Antitumor activity against mouse 4T1 cells implanted in athymic BALB/c mouse assessed as reduction in tumor volume at 12.5 to 25 mg/kg, ip administered for 14 days; format: functional, organism-based; settings: dose 12.5-25 mg/kg, time 14.0 day
[23] = Toxicity in athymic BALB/c mouse implanted with mouse 4T1 cells assessed as heart tissue damage at 12.5 to 25 mg/kg, ip administered for 14 days; format: organism-based; settings: in vivo, 336 h, dose 12.5-25 mg/kg, time 14 day
[24] = Toxicity in athymic BALB/c mouse implanted with mouse 4T1 cells assessed as liver tissue damage at 12.5 to 25 mg/kg, ip administered for 14 days; format: organism-based; settings: in vivo, 336 h, dose 12.5-25 mg/kg, time 14 day
[25] = Toxicity in athymic BALB/c mouse implanted with mouse 4T1 cells assessed as spleen tissue damage at 12.5 to 25 mg/kg, ip administered for 14 days; format: organism-based; settings: in vivo, 336 h, dose 12.5-25 mg/kg, time 14 day
[26] = Toxicity in athymic BALB/c mouse implanted with mouse 4T1 cells assessed as lung tissue damage at 12.5 to 25 mg/kg, ip administered for 14 days; format: organism-based; settings: in vivo, 336 h, dose 12.5-25 mg/kg, time 14 day
[27] = Toxicity in athymic BALB/c mouse implanted with mouse 4T1 cells assessed as kidney tissue damage at 12.5 to 25 mg/kg, ip administered for 14 days; format: organism-based; settings: in vivo, 336 h, dose 12.5-25 mg/kg, time 14 day
4T1 [28] = assay: In vivo inhibition of RNA Pol II phosphorylation at ser2 in athymic BALB/c mouse implanted with mouse 4T1 cells at 12.5 to 25 mg/kg, ip administered once daily for 14 days by Western blot analysis; format: functional, organism-based; settings: dose 12.5-25 mg/kg, time 14.0 day
4T1 [29] = assay: Antitumor activity against mouse 4T1 cells implanted in athymic BALB/c mouse assessed as increase in cleaved PARP at 12.5 to 25 mg/kg, ip administered once daily for 14 days by Western blot analysis; format: functional, organism-based; settings: dose 12.5-25 mg/kg, time 14.0 day
MDA-MB-231 [30] = assay: Synergistic antiproliferative activity against human MDA-MB-231 cells assessed as inhibition of cell growth incubated for 48 hrs in presence of varying concentrations of olaparib by MTT assay; format: functional, cell-based; settings: dose 0.01-4 µM
MDA-MB-231 [31] = assay: Antiproliferative activity against human MDA-MB-231 cells assessed as decrease in sphere size by measuring sphere diameter at 100 nM incubated for 10 days by confocal laser scanning microscopy (reference value: 508.27 micrometer); format: functional; settings: time 10 day
MDA-MB-231 [32] = assay: Inhibition of colony formation in human MDA-MB-231 cells assessed as reduction in colony size incubated for 10 days by crystal violet staining based analysis; format: functional, cell-based; settings: dose 12-1000 nM, time 10.0 day
MDA-MB-231 [33] = assay: Induction of apoptosis in human MDA-MB-231 cells transfected with shCDK9 assessed as reduction in Bcl-2 expression at 300 nM by Western blot analysis; format: functional, cell-based
[34] = Toxicity in mouse assessed as lethal dose administered intraperitoneally for 16 days by Karber's method; settings: in vivo, route ip, time 16 day
[35] = Toxicity in athymic BALB/c mouse implanted with mouse 4T1 cells assessed as body weight loss at 12.5 mg/kg, ip administered for 14 days; format: organism-based; settings: in vivo, 336 h, time 14 day

Chain of Cyclin-dependent kinase 12 (Homo sapiens) (Q9NYV4 whole entry, looked up): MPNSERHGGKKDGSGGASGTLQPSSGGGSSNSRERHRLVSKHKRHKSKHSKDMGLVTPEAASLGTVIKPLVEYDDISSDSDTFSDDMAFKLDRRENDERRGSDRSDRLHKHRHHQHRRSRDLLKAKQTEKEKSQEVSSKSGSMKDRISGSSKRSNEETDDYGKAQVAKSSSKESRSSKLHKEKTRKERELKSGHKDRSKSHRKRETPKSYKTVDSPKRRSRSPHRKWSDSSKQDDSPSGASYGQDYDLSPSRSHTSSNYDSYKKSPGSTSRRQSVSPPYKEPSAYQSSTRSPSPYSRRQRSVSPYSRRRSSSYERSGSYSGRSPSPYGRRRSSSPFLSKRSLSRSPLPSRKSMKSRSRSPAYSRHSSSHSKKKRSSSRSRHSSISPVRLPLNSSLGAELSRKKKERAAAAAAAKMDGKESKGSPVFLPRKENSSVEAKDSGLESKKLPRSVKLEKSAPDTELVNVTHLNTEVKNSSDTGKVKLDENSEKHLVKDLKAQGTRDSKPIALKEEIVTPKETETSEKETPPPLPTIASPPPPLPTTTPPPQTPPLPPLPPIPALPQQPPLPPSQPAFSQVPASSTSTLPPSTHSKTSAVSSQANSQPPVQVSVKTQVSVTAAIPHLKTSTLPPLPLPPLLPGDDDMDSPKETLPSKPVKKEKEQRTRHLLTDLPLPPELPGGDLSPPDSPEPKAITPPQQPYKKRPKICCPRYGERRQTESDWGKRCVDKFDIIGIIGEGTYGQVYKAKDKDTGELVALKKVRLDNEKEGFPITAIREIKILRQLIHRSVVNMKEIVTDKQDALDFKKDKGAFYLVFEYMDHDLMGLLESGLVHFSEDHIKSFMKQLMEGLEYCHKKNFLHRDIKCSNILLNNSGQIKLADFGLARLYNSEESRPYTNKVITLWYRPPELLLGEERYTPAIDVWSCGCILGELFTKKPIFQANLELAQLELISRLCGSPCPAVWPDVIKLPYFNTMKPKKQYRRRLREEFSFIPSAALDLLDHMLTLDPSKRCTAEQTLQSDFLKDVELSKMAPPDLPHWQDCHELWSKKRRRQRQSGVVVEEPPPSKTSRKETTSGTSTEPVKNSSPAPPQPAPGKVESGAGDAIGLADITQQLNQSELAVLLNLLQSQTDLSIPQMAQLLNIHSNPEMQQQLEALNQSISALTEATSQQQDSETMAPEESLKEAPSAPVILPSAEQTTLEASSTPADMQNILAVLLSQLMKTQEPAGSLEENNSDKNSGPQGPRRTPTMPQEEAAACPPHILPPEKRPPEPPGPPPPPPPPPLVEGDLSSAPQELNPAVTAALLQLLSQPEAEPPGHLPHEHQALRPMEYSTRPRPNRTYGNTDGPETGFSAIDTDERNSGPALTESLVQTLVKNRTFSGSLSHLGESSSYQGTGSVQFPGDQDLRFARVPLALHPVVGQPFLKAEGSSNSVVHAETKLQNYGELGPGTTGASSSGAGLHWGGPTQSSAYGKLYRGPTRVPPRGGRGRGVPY

COc1ccc(C(=O)Nc2cc(-c3ccnc(N4CCC(O)CC4)c3)ccn2)cc1
IC50 at 72 h [1]: 498 nM
IC50 at 72 h [2]: 481 nM
IC50 at 72 h [3]: 335 nM
Tmax [4]: 30 min
AUC(0-t) at 24 h [5]: 17000 ng·h/mL
AUC(0-inf) [6]: 17000 ng·h/mL
MRT last at 24 h [7]: 1.26 h
inhibition (MDA-MB-231 [8]): Active
Activity [9]: inactive
Activity [10]: inactive
inhibition (MDA-MB-231 [11]): Dose-Dependent Effect
viability at 0.111 µM (MDA-MB-231 [12]): 43.6%
Activity (MDA-MB-231 [13]): 21.3%
Activity (MDA-MB-231 [14]): 34.93%
viability at 0.333 µM (MDA-MB-231 [15]): 30.8%
Activity (MDA-MB-231 [16]): 48.6%
viability at 1 µM (MDA-MB-231 [17]): 14.2%
Activity (MDA-MB-231 [18]): 0%
inhibition (MDA-MB-231 [19]): Dose-Dependent Effect
mortality at 384 h [20]: 40%
inhibition in vivo at 12.5 mg/kg (4T1 [21]): 63.1%
Activity (4T1 [22]): Active
Activity [23]: Non-Toxic
Activity [24]: Non-Toxic
Activity [25]: Non-Toxic
Activity [26]: Non-Toxic
Activity [27]: Non-Toxic
inhibition (4T1 [28]): Active
Activity (4T1 [29]): Active
Activity (MDA-MB-231 [30]): Dose-Dependent Effect
Activity (MDA-MB-231 [31]): 429.81 um
inhibition (MDA-MB-231 [32]): Dose-Dependent Effect
Activity (MDA-MB-231 [33]): inactive
LD50 at 384 h [34]: 537 mg/kg
Activity [35]: Non-Toxic
